In patent publication US20240316129A1, “Bacteria and Herbal Extract Nutraceutical Blends for Lung Health Maintenance” (The UAB Research Foundation, priority 2021, published 2024):

How the values were obtained:
C57BL/6 mouse pups = assay: In vivo (mouse) dysbiosis model of chronic lung disease, LPS-treated pups
[1] = test system: newborn wild type C57BL/6 mice; assay: Loss of function of Ac-PGP by RTR treatment in LPS-treated newborn mice; format: in vivo, mouse; settings: under noxious stimuli, LPS+RTR compared to LPS alone, P<0.05
From the text: FIG. 9A illustrates that newborn wild type C57BL/6 mice were randomized to treatment with RTR, LPS, and RTR+LPS as well as normoxia and noxious stimuli.

mice = settings: normoxia and under noxious stimuli, P<0.05
RSB12 = assay: Culture growth of probiotic strain RSB12 with herbal extracts or Vitamin D; format: cell-based, Lactobacillus acidophilus; settings: number of colonies per plate
RSB13 = assay: Culture growth of probiotic strain RSB13 with herbal extracts or Vitamin D; format: cell-based, Lactobacillus rhamnosus; settings: number of colonies per plate
RSB11 = assay: Culture growth of probiotic strain RSB11 with herbal extracts or Vitamin D; format: cell-based, Lactobacillus plantarum; settings: number of colonies per plate
[2] = LPS-treated mice compared to controls, P<0.05

Substance: lipopolysaccharide [LPS]
- lung tissue histology (C57BL/6 mouse pups; LPS-treated C57BL/6 mouse pups): alveolar hypoplasia and simplification
- myeloperoxidase (MPO) levels in BALF (C57BL/6 mouse pups; [2]): significantly increased
- neutrophil elastase (NE) levels in BALF (C57BL/6 mouse pups; [2]): significantly increased
- radial alveolar counts (RAC) (C57BL/6 mouse pups; [2]): significantly decreased
- Ac-PGP levels in BALF (C57BL/6 mouse pups; LPS-treated mice compared to controls, by HPLC, P<0.05): significantly increased

Substance: arginine-threonine-arginine [RTR]
- MPO concentrations [1]: significantly lower
- RAC [1]: significantly higher
- RVH [1]: significantly less severe

Substance: N-acetyl-Proline-Glycine-Proline [Ac-PGP]
- MPO concentration (mice; ELISA): increased
- NE concentrations in BALF (mice): increased
- RAC counts (mice): decreased
- right ventricular hypertrophy (RVH) (mice): increased

Substance: Vitamin D
- culture growth of RSB12 (RSB12): do not have an inhibitory effect
- culture growth of RSB13 (RSB13): do not have an inhibitory effect
- culture growth of RSB11 (RSB11): do not have an inhibitory effect
